Experimental data reported in US20050124638A1, “Benzimidazoles and analogs thereof as antivirals” (priority 2003, published 2005).
Read-outs that look alike come from different tables or passages of the source.

Tests used:
[1] = test system: HCV IRES stem IIa RNA target; test: Mass spectrometry based binding assay; conditions: for binding percentages of ligand to target: ligand 50 μM, IIa target 2.5 μM, Table 1
[2] = Single dose in vivo pharmacokinetic study; conditions: rats, single 3.0 mg/kg IV, mean; for clearance / Vd: rat, plasma; for Vd: read-out: Vdss
Experimental: A single dose pharmacokinetic study was performed to investigate the pharmacokinetics of representative compounds. Of particular interest was […] the ability of the compounds to accumulate in liver, which is the target tissue for HCV chemotherapy as it is the primary reservoir of virus. 3-4 rats per group were administered a single dose (3 mg/kg intravenously, IV or 6 mg/kg orally, PO). Blood samples were taken at 0.25, 0.5, 1, 2, 3, 4, 6, and 8 h timepoints, and pharmacokinetic parameters calculated. Both representative compounds were rapidly distributed to tissues, as evidenced by the high clearance rates and volumes of distribution, and low levels of excretion (ca 10% of total drug in urine and feces at 8 h). Major tissues were examined for presence of drug. […] The tissue accumulation for the IV dose is shown in FIG. 1, as a function of concentration and percent of total administered dose.

[3] = test system: HCV RNA levels in Ntat2ANeo replicon containing cell line; test: Replicon assay (Ntat2ANeo replicon cells, quantitative RT-PCR of HCV RNA); type: cell-based; conditions: Hepatitis C virus; Table 8
MTT toxicity assay = type: cell-based
Description: The color was quantified by spectrophotometric means. For each cell type a linear relationship between cell number and absorbance is established, enabling quantification of changes of proliferation.

female mice = test: Acute in vivo toxicity study; conditions: 5 or 45 mg/kg i.p. for 3 days
Experimental: In the study design, 3-4 female mice/group were dosed with 0, 5 or 45 mg/kg of IBIS00553642, IBIS000408094, or IBIS00405746 for 3 days (i.p.). Clinical signs, body weights, clinical pathology, organ weights, and histopathology endpoints were evaluated.
A single dose toxicity study was performed to investigate the toxicity of representative compounds. Briefly, 3-4 female mice per group were administered 0, 5, or 45 mg/kg drug (intraperitoneal) on consecutive days for 3 days. At the end of the study, mice were sacrificed, and clinical signs, body weights, clinical pathology, organ weights, and histopathology endpoints were evaluated. […] The gross findings at necropsy were minor and limited to discolorations in liver and kidney or large gallbladder in 4/18 mice (no dose response and unclear relationship to drug). […] There were no drug-related effects on clinical pathology.

[4] = Table 8, read-out: Kd to IIa target
[5] = constrained vs unconstrained N1/N2 side chains, read-out: KD

COc1ccc2nc(N)n(CCCN(C)C)c2c1
MS Target Selectivity ([1]; Table 2): ˜10 | Kd ([1]; Table 2, read-out: Est. KD): ~40 µM

CN(C)CCCn1c(N)nc2ccc(OCCCN(C)Cc3ccco3)cc21
clearance [2]: 34.5 mL/min/kg | Vd [2]: 82.8 L/kg | % AUC Extrap [2]: 80.0% | AUC [2]: 311 ng·h/mL | AUC Extrap [2]: 1928 ng·h/mL | Co [2]: 201 ng/mL | MRT [2]: 3.1 h | T1/2 [2]: 37.5 h

CN(C)CC1CNc2nc3ccc(OCCCN(C)Cc4ncc[nH]4)cc3n2C1 (stereo not shown) [IBIS00554843]
Kd [1, 4]: 3.1 µM | IC50 [3]: > 100 µM | CC50 at 48 h (MTT toxicity assay): > 100 µM

CN(C)CC1CNc2nc3ccc(OCCCN[C@@H]4CCN(Cc5ccccc5)C4)cc3n2C1 (stereo partly shown) [IBIS00528635]
Kd [1, 4]: 1 µM | IC50 [3]: 42.3 µM | CC50 at 48 h (MTT toxicity assay): 90 µM

CN(C)CCCn1c(N)nc2ccccc21 [drawing 62]
binding percentages of ligand to target [1]: 56% binding

CN(C)CC1CNc2nc3ccc(OCCCN(C)Cc4cccc(Br)n4)cc3n2C1 (stereo not shown) [IBIS00560002]
Kd [1, 4]: 110 µM | IC50 [3]: 11.6 µM | CC50 at 48 h (MTT toxicity assay): > 100 µM

Nc1nc2ccccc2n1CCCN1CCCC1
binding percentages of ligand to target [1]: 15%

CN(C)CCCn1c(N)nc2ccc3c(c21)CC(CN(C)Cc1cccn1C)CO3 (stereo not shown) [IBIS00560031]
Kd [1, 4]: 18 µM | IC50 [3]: 21.7 µM | CC50 at 48 h (MTT toxicity assay): > 100 µM

CN(C)CCCn1c(N)nc2ccc3c(c21)CC(CN(C)CCN(C)C)CO3 (stereo not shown) [IBIS00560025]
Kd [1, 4]: 9.4 µM | IC50 [3]: 71.2 µM | CC50 at 48 h (MTT toxicity assay): > 100 µM

CN(C)CCCn1c(N)nc2ccc3c(c21)CC(CN(C)C)O3 (stereo not shown) [IBIS00560047]
CC50 at 48 h (MTT toxicity assay): > 100 µM

CCN(CC)CCn1c(N)nc2ccccc21
binding percentages of ligand to target [1]: 15%

CN(C)CC1CNc2nc3ccc(OCCCN(C)Cc4cccs4)cc3n2C1 (stereo not shown) [IBIS00554886]
Kd [1, 4]: 5 µM | IC50 [3]: 15.3 µM | CC50 at 48 h (MTT toxicity assay): > 100 µM

CC1CCCCN1CCCn1c(N)nc2ccc(OCCCN(C)Cc3ccccn3)cc21 (stereo not shown) [IBIS00553642]
Clinical Signs (female mice): No significant toxicity at 5 and 45 mg/kg doses.

CN(C)CC1CNc2nc3ccc(OCCCN(C)Cc4ccc[nH]4)cc3n2C1 (stereo not shown) [IBIS00528636]
Kd [1, 4]: 1.2 µM | IC50 [3]: 27.2 µM | CC50 at 48 h (MTT toxicity assay): 90 µM

CN(C)CC1CNc2nc3ccc(OCCCN(C)Cc4cccn4C)cc3n2C1 (stereo not shown) [IBIS00554842]
Kd [1, 4]: 0.78 µM | IC50 [3]: 4 µM | CC50 at 48 h (MTT toxicity assay): 50 µM

CN(C)CCCOc1ccc2nc(N)n(CCCN(C)C)c2c1 [drawing 69]
MS Target Selectivity ([1]; Table 2): ˜15 | Kd ([1]; Table 2, read-out: Est. KD): ~10 µM

CN(C)CC1CNc2nc3ccc(OCCCN4CCC(N5CCCC5)CC4)cc3n2C1 (stereo not shown) [IBIS00528634]
Kd [1, 4]: 1.7 µM | IC50 [3]: 19.2 µM | CC50 at 48 h (MTT toxicity assay): > 100 µM

CN(C)CCCOc1ccc2nc3n(c2c1)CC(CN(C)C)CN3 (stereo not shown) [drawing 124]
Kd [1, 5]: 0.67 µM

CN(C)CCCOc1ccc2ncn(CCCN(C)C)c2c1
MS Target Selectivity ([1]; Table 3): 1 | Kd ([1]; Table 3, read-out: Est. KD): > 500 µM

CN(C)CC1CNc2nc3ccc(OCCCN(C)Cc4ccc(CO)o4)cc3n2C1 (stereo not shown) [IBIS00554889]
Kd [1, 4]: 5.9 µM | IC50 [3]: 57.9 µM | CC50 at 48 h (MTT toxicity assay): > 100 µM

CN(C)CCCn1c(N)nc2ccc3c(c21)CC(CN(C)C(=N)N)CO3 (stereo not shown) [IBIS00560101]
Kd [1, 4]: 5.5 µM | IC50 [3]: > 100 µM | CC50 at 48 h (MTT toxicity assay): > 100 µM

CN(C)CCCOc1ccc2nc(N)[nH]c2c1
MS Target Selectivity ([1]; Table 3): ˜2 | Kd ([1]; Table 3, read-out: Est. KD): > 500 µM

CN(C)CCCn1c(N)nc2ccc3c(c21)CC(CN(C)CCN(C)C)O3 (stereo not shown) [IBIS00560048]
Kd [1, 4]: 11 µM | IC50 [3]: 23 µM | CC50 at 48 h (MTT toxicity assay): > 100 µM

CN(C)CCCOc1ccc2nc(N)n(CCCN(C)C)c2c1 [IBIS00403514]
Kd [1, 4]: 3.8 µM | IC50 [3]: 37.1 µM

CN(C)CCCOc1ccc2nc(N)n(CCCN(C)C)c2c1 [drawing 125]
Kd [1, 5]: 3.6 µM

CNCC1COc2ccc3nc(N)n(CCCN(C)C)c3c2C1 (stereo not shown) [IBIS00560100]
Kd [1, 4]: 3.1 µM | IC50 [3]: 51.6 µM | CC50 at 48 h (MTT toxicity assay): > 100 µM

CN(CCCOc1ccc2nc3n(c2c1)CC(CN1CCCCC1)CN3)Cc1ccccn1 (stereo not shown) [IBIS00554811]
Kd [1, 4]: 4.3 µM | IC50 [3]: 24 µM | CC50 at 48 h (MTT toxicity assay): > 100 µM

CN(C)CCCn1c(N)nc2ccccc21 [drawing 67]
MS Target Selectivity ([1]; Table 2): ˜3 | Kd ([1]; Table 2, read-out: Est. KD): ~100 µM

CN(C)CC1CNc2nc3ccc(OCCCNC4CCN(Cc5ccccc5)CC4)cc3n2C1 (stereo not shown) [IBIS00528633]
Kd [1, 4]: 4 µM | IC50 [3]: 13.7 µM | CC50 at 48 h (MTT toxicity assay): > 100 µM

CN(C)CCCOc1ccc2nc(N)n(CCCN(C)C)c2c1 [drawing 70]
MS Target Selectivity ([1]; Table 3): ˜15 | Kd ([1]; Table 3, read-out: Est. KD): ~10 µM

CN(C)CCCn1c(N)nc2ccc3c(c21)CC(CN(C)C)CO3 (stereo not shown) [IBIS00560020]
Kd [1, 4]: 2.2 µM | IC50 [3]: 9 µM | CC50 at 48 h (MTT toxicity assay): > 100 µM

CN(C)CCn1c(N)nc2ccccc21
binding percentages of ligand to target [1]: 11%

CN(C)CCCn1c(N)nc2ccc3c(c21)CC(CCN)CO3 (stereo not shown) [IBIS00560024]
Kd [1, 4]: 3.4 µM | IC50 [3]: > 100 µM | CC50 at 48 h (MTT toxicity assay): > 100 µM

CN(C)CC1CNc2nc3ccc(OCCCN(C)Cc4ccccn4)cc3n2C1 (stereo not shown) [drawing 164]
clearance [2]: 160 mL/min/kg | Vd [2]: 137 L/kg | % AUC Extrap [2]: 47% | AUC [2]: 165 ng·h/mL | AUC Extrap [2]: 320 ng·h/mL | Co [2]: 219 ng/mL | MRT [2]: 2 h | T1/2 [2]: 14 h

CN(C)CC1CNc2nc3ccc(OCCCN(C)Cc4ccco4)cc3n2C1 (stereo not shown) [IBIS00554844]
Kd [1, 4]: 1.7 µM | IC50 [3]: 4.9 µM | CC50 at 48 h (MTT toxicity assay): > 100 µM

CN(C)CCCn1c(N)nc2ccc3c(c21)CC(CN(C)Cc1ncc[nH]1)CO3 (stereo not shown) [IBIS00560122]
Kd [1, 4]: 19.6 µM | IC50 [3]: > 100 µM | CC50 at 48 h (MTT toxicity assay): > 100 µM

CN(C)CC1CNc2nc3ccc(OCCCN(C)Cc4ccccn4)cc3n2C1 (stereo not shown) [IBIS00528637]
Kd [1, 4]: 0.56 µM | IC50 [3]: 14.2 µM | CC50 at 48 h (MTT toxicity assay): > 100 µM

CN(C)CCCn1c(N)nc2ccccc21 [drawing 71]
MS Target Selectivity ([1]; Table 3): ˜3 | Kd ([1]; Table 3, read-out: Est. KD): ~100 µM

CN(CCCOc1ccc2nc(N)n(CCCN3CCCCC3)c2c1)Cc1ccc[nH]1 [IBIS00408094]
Clinical Signs (female mice): No significant toxicity at 5 and 45 mg/kg doses.

CN(C)CCCn1c(N)nc2ccc(OCCCN[C@@H]3CCN(Cc4ccccc4)C3)cc21 [IBIS00405746]
Clinical Signs (female mice): No significant toxicity at 5 mg/kg dose.

CN(C)CCCn1c(N)nc2ccc3c(c21)CC(CN(C)Cc1cccn1C)O3 (stereo not shown) [IBIS00560102]
Kd [1, 4]: 10.4 µM | IC50 [3]: 3.3 µM | CC50 at 48 h (MTT toxicity assay): > 100 µM

CN(CCCOc1ccc2nc3n(c2c1)CC(CN1CCCCC1)CN3)Cc1ccco1 (stereo not shown) [IBIS00554813]
Kd [1, 4]: 5.1 µM | IC50 [3]: 18.2 µM | CC50 at 48 h (MTT toxicity assay): > 100 µM

Nc1nc2ccccc2n1CCOc1ccccc1
binding percentages of ligand to target [1]: 6%

CN(C)CCCn1c(N)nc2ccc3c(c21)CC(CN)CO3 (stereo not shown) [IBIS00560121]
Kd [1, 4]: 17.2 µM | IC50 [3]: 42.7 µM | CC50 at 48 h (MTT toxicity assay): > 100 µM

CN(C)CCCOc1ccc2nc3n(c2c1)CC(CN(C)C)CN3 (stereo not shown) [IBIS00408169]
Kd [1, 4]: 4.5 µM | IC50 [3]: 28.7 µM | CC50 at 48 h (MTT toxicity assay): > 100 µM

CN(C)CC1COc2ccc3nc4n(c3c2C1)CC(CN(C)C)CN4 (stereo not shown) [IBIS00560146]
Kd [1, 4]: 21.1 µM | IC50 [3]: 5.4 µM | CC50 at 48 h (MTT toxicity assay): > 100 µM

CN(C)CC1CNc2nc3ccc(OCCCN(C)Cc4nccs4)cc3n2C1 (stereo not shown) [IBIS00554888]
Kd [1, 4]: 8.8 µM | IC50 [3]: > 100 µM | CC50 at 48 h (MTT toxicity assay): > 100 µM

CN(C)CCCOc1ccc2nc3n(c2c1)CC(CN1CCCCC1)CN3 (stereo not shown) [IBIS00554807]
Kd [1, 4]: 3.4 µM | IC50 [3]: 14.1 µM | CC50 at 48 h (MTT toxicity assay): > 100 µM
